Experimental data reported in ChEMBL document CHEMBL6114965, “Novel dual-targeting PROTAC degraders of GSK-3β and CDK5: A promising approach for pancreatic cancer treatment” (Bioorg Med Chem, 2025).
Calls of active or inactive are those of the source. No cut-off for these calls is given here.

Assays:
[1] = tested on: PANC-1; assay: Antiproliferative activity against human PANC-1 cells assessed as inhibition of cell viability by MTT assay; type: functional, cell-based
[2] = target: T1, Protein cereblon/Glycogen synthase kinase-3 beta (Homo sapiens, UniProt P49841+Q96SW2); assay: PROTAC activity at CRBN/GSK3beta in human PANC-1 cells assessed as induction of GSK3beta degradation by target engagement binding based cell-ELISA
Target sequence in this assay (P49841 whole entry): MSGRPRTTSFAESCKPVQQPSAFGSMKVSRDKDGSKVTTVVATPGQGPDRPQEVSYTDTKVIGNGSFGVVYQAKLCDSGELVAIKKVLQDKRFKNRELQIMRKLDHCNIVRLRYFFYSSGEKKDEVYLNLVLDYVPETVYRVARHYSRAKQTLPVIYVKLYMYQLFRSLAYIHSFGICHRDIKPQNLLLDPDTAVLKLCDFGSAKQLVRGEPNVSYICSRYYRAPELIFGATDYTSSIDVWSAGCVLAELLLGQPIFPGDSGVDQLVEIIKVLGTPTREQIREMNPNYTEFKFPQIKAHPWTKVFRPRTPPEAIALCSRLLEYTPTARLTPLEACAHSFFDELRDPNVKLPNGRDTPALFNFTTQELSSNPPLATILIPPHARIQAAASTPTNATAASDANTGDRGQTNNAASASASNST
Target sequence in this assay (Q96SW2 whole entry): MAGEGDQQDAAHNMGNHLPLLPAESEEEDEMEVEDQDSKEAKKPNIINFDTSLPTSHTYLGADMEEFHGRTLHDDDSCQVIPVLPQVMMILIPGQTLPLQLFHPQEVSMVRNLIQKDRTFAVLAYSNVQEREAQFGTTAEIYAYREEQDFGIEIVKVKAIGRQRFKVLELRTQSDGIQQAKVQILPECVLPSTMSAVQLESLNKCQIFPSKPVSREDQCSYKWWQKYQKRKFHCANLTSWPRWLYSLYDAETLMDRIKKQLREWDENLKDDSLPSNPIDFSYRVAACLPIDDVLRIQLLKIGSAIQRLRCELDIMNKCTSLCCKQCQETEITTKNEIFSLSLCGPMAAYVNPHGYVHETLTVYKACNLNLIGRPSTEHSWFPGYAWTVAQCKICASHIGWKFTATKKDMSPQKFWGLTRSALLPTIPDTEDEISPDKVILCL

[3] = tested on: ASPC1; assay: Antiproliferative activity against human ASPC1 cells assessed as inhibition of cell viability by MTT assay; type: functional, cell-based
[4] = target: T2, Protein cereblon/Cyclin-dependent kinase 5 (Homo sapiens, UniProt Q00535+Q96SW2); assay: PROTAC activity at CRBN/CDK5 in human PANC-1 cells assessed as induction of CDK5 degradation by target engagement binding based cell-ELISA
Target sequence in this assay (Q00535 whole entry): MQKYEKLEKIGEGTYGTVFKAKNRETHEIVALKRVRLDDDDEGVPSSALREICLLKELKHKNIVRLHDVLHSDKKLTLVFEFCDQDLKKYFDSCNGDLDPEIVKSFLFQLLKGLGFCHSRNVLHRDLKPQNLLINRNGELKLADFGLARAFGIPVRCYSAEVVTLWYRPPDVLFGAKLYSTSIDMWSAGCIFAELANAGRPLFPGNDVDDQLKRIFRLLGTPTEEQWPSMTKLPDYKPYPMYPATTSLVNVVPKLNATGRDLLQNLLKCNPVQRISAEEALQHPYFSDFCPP
Target sequence in this assay (Q96SW2 whole entry): as the sequence (Q96SW2 whole entry) above

[5] = target: T2, Protein cereblon/Cyclin-dependent kinase 5; assay: PROTAC activity at CRBN/CDK5 in human PANC-1 cells assessed as induction of CDK5 degradation at 0.5 to 2.8 uM incubated for 10 hrs in presence of MG132 by Western blot analysis; type: cell-based; settings: dose 0.5-2.8 µM
Target sequence in this assay (Q00535 whole entry, looked up): as the sequence (Q00535 whole entry) above
Target sequence in this assay (Q96SW2 whole entry, looked up): as the sequence (Q96SW2 whole entry) above

[6] = tested on: BXPC-3; assay: Antiproliferative activity against human BXPC-3 cells assessed as inhibition of cell viability by MTT assay; type: functional, cell-based
[7] = target: T1, Protein cereblon/Glycogen synthase kinase-3 beta; assay: PROTAC activity at CRBN/GSK3beta in human PANC-1 cells assessed as induction of GSK3beta degradation at 0.5 to 2.8 uM incubated for 10 hrs in presence of MG132 by Western blot analysis; type: cell-based; settings: dose 0.5-2.8 µM
Target sequence in this assay (P49841 whole entry, looked up): as the sequence (P49841 whole entry) above
Target sequence in this assay (Q96SW2 whole entry, looked up): as the sequence (Q96SW2 whole entry) above

[8] = target: T1, Protein cereblon/Glycogen synthase kinase-3 beta; assay: PROTAC activity at CRBN/GSK3beta in human PANC-1 cells assessed as induction of GSK3beta degradation by measuring maximal efficacy by target engagement binding based cell-ELISA relative to control
Target sequence in this assay (P49841 whole entry, looked up): as the sequence (P49841 whole entry) above
Target sequence in this assay (Q96SW2 whole entry, looked up): as the sequence (Q96SW2 whole entry) above

[9] = Permeability of compound in PBS at pH 7.4 at 500 uM incubated for 4 hrs by UV spectrophotometry based PAMPA; type: ADME; settings: read-out: permeability
[10] = tested on: MIA PaCa-2; assay: Antiproliferative activity against human MIA PaCa-2 cells assessed as inhibition of cell viability by MTT assay; type: functional, cell-based
[11] = target: T2, Protein cereblon/Cyclin-dependent kinase 5; assay: PROTAC activity at CRBN/CDK5 in human PANC-1 cells assessed as induction of CDK5 degradation by measuring maximal efficacy by target engagement binding based cell-ELISA relative to control
Target sequence in this assay (Q00535 whole entry, looked up): as the sequence (Q00535 whole entry) above
Target sequence in this assay (Q96SW2 whole entry, looked up): as the sequence (Q96SW2 whole entry) above

[12] = target: T1, Protein cereblon/Glycogen synthase kinase-3 beta; assay: PROTAC activity at CRBN/GSK3beta in human PANC-1 cells assessed as induction of GSK3beta degradation at 1 to 2.8 uM incubated for 10 hrs by Western blot analysis; type: cell-based; settings: dose 1-2.8 µM
Target sequence in this assay (P49841 whole entry, looked up): as the sequence (P49841 whole entry) above
Target sequence in this assay (Q96SW2 whole entry, looked up): as the sequence (Q96SW2 whole entry) above

[13] = target: T2, Protein cereblon/Cyclin-dependent kinase 5; assay: PROTAC activity at CRBN/CDK5 in human PANC-1 cells assessed as induction of CDK5 degradation at 1 to 2.8 uM incubated for 10 hrs by Western blot analysis; type: cell-based; settings: dose 1-2.8 µM
Target sequence in this assay (Q00535 whole entry, looked up): as the sequence (Q00535 whole entry) above
Target sequence in this assay (Q96SW2 whole entry, looked up): as the sequence (Q96SW2 whole entry) above

[14] = Metabolic stability in pooled human liver microsomes assessed as half-life at 100 uM measured upto 120 mins by LC-MS/MS analysis; type: ADME, Microsome
[15] = Cytotoxicity against human HepG2 cells; type: toxicity, cell-based
[16] = Cytotoxicity against human A549 cells; type: toxicity, cell-based
[17] = target: T3, Cytochrome P450 2B6 (Homo sapiens, UniProt P20813); assay: Inhibition of CYP2B6 (unknown origin) using bupropion as substrate […]; type: ADME
T3 sequence (P20813 whole entry): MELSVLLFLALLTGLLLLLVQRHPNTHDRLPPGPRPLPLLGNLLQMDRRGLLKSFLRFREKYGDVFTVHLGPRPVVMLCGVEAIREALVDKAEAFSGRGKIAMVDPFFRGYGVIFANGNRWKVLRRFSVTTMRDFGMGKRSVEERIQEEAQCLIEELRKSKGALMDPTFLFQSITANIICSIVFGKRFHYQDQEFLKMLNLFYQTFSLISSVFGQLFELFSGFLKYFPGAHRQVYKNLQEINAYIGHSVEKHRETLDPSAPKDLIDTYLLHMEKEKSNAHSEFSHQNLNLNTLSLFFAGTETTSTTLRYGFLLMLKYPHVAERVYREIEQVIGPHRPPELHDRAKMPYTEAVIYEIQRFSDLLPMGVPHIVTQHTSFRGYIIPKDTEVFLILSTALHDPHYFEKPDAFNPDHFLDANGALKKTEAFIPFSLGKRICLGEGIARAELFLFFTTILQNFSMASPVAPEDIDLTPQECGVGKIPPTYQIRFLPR

[18] = target: Protein cereblon/Cyclin-dependent kinase 2 (Homo sapiens, UniProt P24941+Q96SW2); assay: PROTAC activity at CRBN/CDK2 (unknown origin) assessed as induction of CDK2 degradation; type: protein assay

IC50 [1] [nM]	DC50 [2] [nM]	IC50 [3] [nM]	DC50 [4] [nM]	Activity [5]	IC50 [6] [nM]	Activity [7]	Emax [8] [%]	Papp at 4 h, 500 µM [9] [×10⁻⁶ cm/s]	IC50 [10] [nM]	Emax [11] [%]	Activity [12]	Activity [13]	half-life at 100 µM [14] [min]	IC50 [17] [nM]	DC50 [18] [nM]	Structure (SMILES)	CC50 [15] [nM]	CC50 [16] [nM]
2750	90	3570	36	inactive	3140	inactive	89	61.2	3810	92	–	–	–	–	–	O=C1CCC(N2C(=O)c3cccc(NCCOCCOCCOCC(=O)N4CCC(NC(=O)c5c[nH]nc5NC(=O)c5c(Cl)cccc5Cl)CC4)c3C2=O)C(=O)N1 (centres undefined)	–	–
2500	56	3870	52	inactive	2870	inactive	88	69.2	2430	89	Active	Active	–	–	–	O=C1CCC(N2C(=O)c3ccc(N4CCN(CCOCCC(=O)N5CCN(CCCn6cc(C7=C(c8c[nH]c9ccccc89)C(=O)NC7=O)c7ccccc76)CC5)CC4)cc3C2=O)C(=O)N1 (centres undefined)	–	–
–	–	–	–	–	–	–	–	4.08	–	–	–	–	–	–	–	OC[C@@H](O)[C@@H](O)[C@H](O)[C@H](O)CO [MANNITOL]	–	–
–	–	–	–	–	–	–	–	–	–	–	–	–	57	–	–	CC(=O)c1c(C)c2cnc(Nc3ccc(N4CCNCC4)cn3)nc2n(C2CCCC2)c1=O [PALBOCICLIB]	8120	7950
–	–	–	–	–	–	–	–	–	–	–	–	–	–	12500	–	CN[C@H]1CC[C@@H](c2ccc(Cl)c(Cl)c2)c2ccccc21 [SERTRALINE]	–	–
1950	98	2250	32	inactive	2210	inactive	89	38.6	2190	90	Active	Active	–	–	–	O=C1CCC(N2C(=O)c3ccc(N4CCN(CCOCCC(=O)N5CCC(NC(=O)c6c[nH]nc6NC(=O)c6c(Cl)cccc6Cl)CC5)CC4)cc3C2=O)C(=O)N1 (centres undefined)	–	–
8600	–	6500	–	–	9100	–	–	–	7200	–	–	–	–	–	–	O=C1Cc2c([nH]c3ccc(Br)cc23)-c2ccccc2N1 [KENPAULLONE]	–	–
5720	220	3350	330	inactive	4870	inactive	75	–	4670	78	–	–	–	–	–	O=C1CCC(N2C(=O)c3cccc(NCCOCCOCCOCCOCCOCn4cc(CN5CCN(CCCn6cc(C7=C(c8c[nH]c9ccccc89)C(=O)NC7=O)c7ccccc76)CC5)nn4)c3C2=O)C(=O)N1 (centres undefined)	–	–
–	–	–	–	–	–	–	–	–	–	–	–	–	–	–	61	Cc1cscc1C(=O)n1nc(Nc2ccc(S(=O)(=O)NCCOCc3cn(CCOCCOCCNc4cccc5c4C(=O)N(C4CCC(=O)NC4=O)C5=O)nn3)cc2)nc1N (centres undefined)	–	–
2340	152	2560	45	inactive	2890	inactive	78	31.3	3120	90	–	–	–	–	–	CN(CCC(=O)N1CCC(NC(=O)c2c[nH]nc2NC(=O)c2c(Cl)cccc2Cl)CC1)C(=O)CNc1cccc2c1C(=O)N(C1CCC(=O)NC1=O)C2=O (centres undefined)	–	–
2810	125	3580	321	inactive	3540	inactive	81	–	3010	78	–	–	–	–	–	O=C1CCC(N2C(=O)c3cccc(NCC(=O)N4CCC(C(=O)N5CCN(CCCn6cc(C7=C(c8c[nH]c9ccccc89)C(=O)NC7=O)c7ccccc76)CC5)CC4)c3C2=O)C(=O)N1 (centres undefined)	–	–
5150	96	5560	210	inactive	5980	inactive	87	–	6610	81	–	–	–	–	–	O=C1CCC(N2C(=O)c3cccc(NCCOCCOCCOCC(=O)N4CCN(CCCn5cc(C6=C(c7c[nH]c8ccccc78)C(=O)NC6=O)c6ccccc65)CC4)c3C2=O)C(=O)N1 (centres undefined)	–	–

Structure (SMILES)	IC50 [1] [nM]	DC50 [2] [nM]	IC50 [3] [nM]	DC50 [4] [nM]	Activity [5]	IC50 [6] [nM]	Activity [7]	Emax [8] [%]	Papp at 4 h, 500 µM [9] [×10⁻⁶ cm/s]	IC50 [10] [nM]	Emax [11] [%]	Activity [12]	Activity [13]	half-life at 100 µM [14] [min]	IC50 [17] [nM]	DC50 [18] [nM]	CC50 [15] [nM]	CC50 [16] [nM]
Cc1cc(=O)n(-c2ccccc2)n1C [ANTIPYRINE]	–	–	–	–	–	–	–	–	15.2	–	–	–	–	–	–	–	–	–
